Assay results: EP4474386A1, “ANTHRACYCLINES” (priority 2023, dated 2024)
“Also recorded” adds a separate entry of the source.

How the values were obtained:
[1] = system: γH2AX levels in K562 cells; experiment: Assay 3: Western blot of γH2AX levels (DNA damage); assay type: cell-based, human; details: 10 µM, 2 h, FIGS. 3A & 3B
Experimental: Cells were seeded into 12-well format (e.g. 250.000 cells/well for K562, or Mjs), treated with indicated drugs at 10 µM for 2 hours. Subsequently, drugs were removed by extensive washing and cells were collected and processed immediately for the assays. Cells were lysed directly in SDS-sample buffer (2%SDS, 10% glycerol, 5% β-mercaptoethanol, 60mM Tris-HCl pH 6.8 and 0.01% bromophenol blue). Samples were separated by SDS-PAGE and transferred to a PVDF membrane (Immobilon-P, 0.45µm, Millipore). Blocking of the filters and antibody incubations were done in PBS supplemented with 0.1 (v/v)% Tween and 5% (w/v) milk powder (Skim milk powder, LP0031, Oxiod). Blots were imaged by the Odyssey Classic imager (Li-Cor). Intensity of bands was quantified using imaged or Image Studio software. For CFGE: DNA double strand breaks were quantified by constant-field gel electrophoresis as described in Wlodek D., Banáth J., & Olive P. L., International Journal of Radiation Biology, 1991, 60:5, 779-790. Images were quantified using imaged software.
Primary antibodies used for Western blotting: γH2AX (1:1000, 05-036, Millipore), β-actin (1:10000, A5441, Sigma). […]
Assay 3. […] This was determined by assessing γH2AX levels (see Kuo, L. J., Yang, L. X. In Vivo. April 2008, pp 305-310) using the assay for Western blot analysis described herein. […]

[2] = system: MelJuSo-PAGFP-H2A cells; experiment: Assay 4: Microscopy analysis, PAGFP-H2A photoactivation and time-lapse confocal imaging (histone eviction); assay type: cell-based, human; details: 10 µM, 1 hour time-lapse; FIG. 4A
Experimental: For PAGFP-H2A photoactivation and time-lapse confocal imaging, cells were seeded in a 35mm glass bottom petri dish (Poly-dlysine-Coated, MatTek Corporation), and imaged 16 hours later as described in Pang, B., Qiao, X., Janssen, L. et al. Nat Commun 4, 2013, 1908 for one hour following addition of 10µM of the indicated drugs. Time-lapse confocal imaging was performed on a Leica SP8 confocal microscope system 63x lens, equipped with a climate chamber. Movies were quantified using imaged software.
Assay 4. This assay visualised histone eviction and subsequently, the chromatin damage induced by the compounds embodying the present invention could be assessed. The method followed is described in the assay for microscopy analysis described herein.

[3] = system: DNA double-strand breaks in K562 cells; experiment: Assay 2: Constant-field gel electrophoresis (CFGE), DNA double-strand breaks; assay type: cell-based, human; details: 10 µM, 2 hours, FIGS. 3C & 3D
Experimental: Cells were seeded into 12-well format (e.g. 250.000 cells/well for K562, or Mjs), treated with indicated drugs at 10 µM for 2 hours. Subsequently, drugs were removed by extensive washing and cells were collected and processed immediately for the assays. DNA double strand breaks were quantified by constant-field gel electrophoresis as described in Wlodek D., Banáth J., & Olive P. L., International Journal of Radiation Biology, 1991, 60:5, 779-790. Images were quantified using imaged software.
Assay 2. Because anthracycline drugs can also evict histones, including H2AX, the levels of phosphorylated H2AX might be affected. To determine DNA double-strand break induction by the compounds embodying the present invention at the DNA level, we assessed the DNA damage capacity of all the compounds by using constant field gel electrophoresis (CFGE), as described below, a more direct method to detect DNA breaks. The results are set out in FIGS. 3C & 3D.

[4] = system: human myelogenous leukemic cell line K562; experiment: Assay 1: Short-term growth inhibition viability assay (CellTiter-Blue); assay type: cell-based; details: K562 cells
Experimental: Cells were seeded into 96-well format (e.g. 2000 cells/well for K562, Mjs, or U2O cells). 24 hours after seeding, cells were treated with indicated compounds for 2 hours at various concentrations. Subsequently, compounds were removed, and cells were left to grow for an additional 72 hours. Cell viability was measured using the CellTiter-Blue viability assay (Promega). Relative survival was normalized to the untreated control and corrected for background signal.
K562 cells (B. Pang, Leiden University Medical Center, the Netherlands) were maintained in RPMI-1640 medium supplemented with 8% FCS. MelJuSo cells were maintained in IMDM supplemented with 8% FCS. MelJuSo cells stably expressing PAGFP-H2A were maintained in IMDM supplemented with 8% FCS and G-418, as described in Pang, B., Qiao, X., Janssen, L. et al. Nat Commun 4, 1908 (2013). U2Os cells (ATCC® HTB-96) were maintained in DMEM medium supplemented with 8% FCS. Cell lines were maintained in a humidified atmosphere of 5% CO2 at 37°C, regularly tested for the absence of mycoplasma and the origin of cell lines was validated using STR analysis.
Assay 1. Anthracyclines are often used in the treatment of acute myeloid leukaemia and other haematological malignancies. Therefore, the compounds shown in FIG. 1 were assayed for their activity versus human myelogenous leukemic cell line K562 in order to determine their cytotoxicity in vitro, using the assay for short-term growth inhibition viability described herein. […] IC50 is expressed in µM and represents the concentration of compound required to inhibit cell proliferation by 50%.

SMILES | DNA damage (γH2AX levels) [1] | chromatin damage / rate of histone eviction (in words) [2] | DNA double-strand break induction (CFGE) [3] | cytotoxicity (in words, compared with reference anthracyclines) ([4]; FIG. 2A) | IC50 ([4]; 2 hours treatment, then 72 hours growth) | times more cytotoxic than doxorubicin (1) ([4]; relative to doxorubicin (1))
CC(=O)[C@]1(O)Cc2c(O)c3c(c(O)c2[C@@H](O[C@H]2C[C@H](N(C)C)[C@H](O)[C@H](C)O2)C1)C(=O)c1ccccc1C3=O [Compound 18, N,N-dimethylidarubicin] | did not induce DNA damage | superior chromatin damage activity relative to doxorubicin (1); also recorded: improved or comparable toxicity and rate of histone eviction relative to doxorubicin (1) and idarubicin (17) | do not induce DNA; also recorded: does not induce any DNA double-strand breaks |  |  | 
CC(=O)[C@]1(O)Cc2c(O)c3c(c(O)c2[C@@H](O[C@H]2C[C@H](N(C)C)[C@H](O[C@H]4C[C@H](O)[C@H](O[C@H]5CCC(=O)[C@H](C)O5)[C@H](C)O4)[C@H](C)O2)C1)C(=O)c1ccccc1C3=O [Compound 26, 7-[2,3-Dideoxy-4-ulo-α-L-fucopyranosyl-2-deoxy-α-L-fucopyranosyl-(1→4)- -2,3-dideoxy-3-dimethylamino-α-L-fucopyranoside]-idarubicinone] | did not induce DNA damage | superior chromatin damage activity relative to doxorubicin (1); also recorded: fastest histone eviction activity; also recorded: more efficient in terms of histone eviction | do not induce DNA; also recorded: not inducing any DNA double-strand breaks | considerably more cytotoxic than doxorubicin (1); also recorded: most effective compound tested; also recorded: more toxic than doxorubicin (1), aclarubicin (2) and idarubicin (17) | 20 nM | 16 times
